Test results from patent US6015820A, “4-Aryl-thio-pyridin-2(1H)-ones, medicines containing them and their uses in the treatment of illnesses linked to HIV” (priority 1995, dated 2000).
Like-named read-outs stand apart in the source and are kept apart here.

How the values were obtained:
Type in all cases: cell-based
isolated virion HIV-1LAI = experiment: infectivity of the isolated virion after treatment with inhibitors (HT4LacZ cells)
Experimental: H9 cells chronically infected with HIV-1LAI (10^8 /ml) were cocultivated with MT4 cells (10^8 /ml) for 48 hours in an RMPI medium supplemented by 10% of calf foetal serum (CFS). The cells were then removed by centrifugation and then the supernatant liquid was filtered (0.45 μm) to remove residual cells and cell debris.
After having been incubated with the various inhibitors, the viral supernatants (200 μl) were deposited in the filtering part of a VectaSpin tube (WHATMAN) fitted with an ANAPORE membrane of porosity 0.02 μm. For 10 minutes they were subjected to centrifugation, the acceleration of which reached 6000 g at the filtering membrane. The viral residuums thereby obtained (10-15 μl ) were washed 3 times under the same conditions with 500 μl of RPMI then restored to their initial volumes with RPMI containing 10% of CFS.
The HT4LacZ-1 cells were kept in a DMEM medium (glucose 4.5 g/l) supplemented with 10% of calf foetal serum in the presence of Gentamycin (50 mg/l). These cells stemmed from Hela cells in which had been cloned, on the one hand the gene coding for the human CD4 so as to render them susceptible to infection by the HIV (Chesebro and Wehrly, 1988, J. Virol., 62, 3779-3788), and on the other hand the gene for β-Galactosidase which, placed under the dependent of the LTR of the HIV-1 served as a marker for the viral infection (Rocancourt et al. (1990) J. Virol. 1990 64-6, 2660-2688). When the virus infects such cells after its integration into the cellular genome, the production of the regulatory protein TAT activates the LTR of the HIV. The result is an activation of the gene of β-Galactosidase which leads to its production in the intracellular medium and more particularly in the nucleus. It is this protein that serves as a marker of the infection.
The evening of day 0, the HT4LacZ-1 cells were diluted at the rate of 75000 cells per ml of medium. 100 μl of this suspension was then distributed over a flat bottomed plate with 96 wells and was cultivated overnight at 37° C. (5% of CO2).
The morning of day 1, the supernatant liquid was removed by aspiration. Each well was then complemented with 200 μl of the viral supernatant dilutions to be tested. Each dilution was made in a DMEM medium (glucose 4.5 g/l) supplemented with 10% of CFS. The plates were then placed in an environment at 37° C. in the presence of 5% of CO2.
After 48 hours of culture, the supernatant liquid was aspirated, then each well was washed 3 times in PBS before being complemented with 200 μl of developing buffer (Tris-HCl 50 mM pH=8.5, ONPG 5 mg/ml β-mercapto-ethanol 7 μl/ml Triton×100 0.05%). After 4 hours of incubation at 37° C., the optical density of each well was measured.
The concentration of each of the inhibitors of the IT of the HIV-1 was adjusted to 50 mM in DMSO. The later dilutions were carried out on RPMI 1640. 2 μl of suitable dilutions of each of these inhibitors were added to 198 μl of a freshly unfrozen viral suspension. After 3 hours of incubation at ambient temperature, these suspensions were filtered on 0.02 μ VecraSpin tubes, then washed 3 times with 500 μl of RPMI 1640. The viral residuums were then adjusted to 200 μL with the culture medium (RPMI-10% CFS), then tested with regard to their infectivity on HT4LacZ cells.

[1] = cytotoxicity on non-infected cells (MTT test); settings: human; Table 2; non-infected CEM-SS cells, MTT, 5 days
Experimental: In parallel experiments, the cytotoxicity of the molecules was measured on non-infected cells, after an incubation of 5 days in the presence of these molecules, by using a […] titration (MTT test) based on the ability of the mitochondrial dehydrogenases of the living cells to reduce 3-(4,5-dimethylthiazol-2-yl)-2,5-diphenyltetrazolium bromide in formazan (Mosmann et al. J. Immunol. Methods ([…]), 65, 55-63). The concentration cytotoxic at 50% (CC50) is the concentration at which the DO540 has been reduced to half and is calculated by using the program mentioned above.

HIV-1 LAI = experiment: anti-HIV-1 activity: replication of HIV-1 LAI on CEM-SS cells
Experimental: The CEM-SS and the HIV-1 resistant to Nevirapine (N119) carrying a point mutation at codon 181 of the IT, were supplied respectively by P. NARA and D. RICHMAN through the intermediary of the AIDS Research and Reference Reagent Program, Division of AIDS, NIAID, NIH (USA) (Catalogue references : No. 776 and No. 1392).
The virus production was measured by quantifying the activity of the inverse transcriptase associated with viral particles released into the culture supernatant. In short, cells were infected with 100 TCID50 for 30 minutes; after adsorption of the virus, unbound particles were removed by two washings and the cells were cultivated in the presence of different concentrations of the compounds tested for 5 days before determining the viral production. The concentration inhibiting 50% of the viral multiplication (IC50) came from the computer plot of the median effect of the dose effect results (Chou et al. Elsevier Science Publishers, Cambridge U.K. (1985), 19-28).

[2] = Human immunodeficiency virus 1, 3 h, read-out: Activity of the isolated virions after treatment
[3] = Human immunodeficiency virus 1, 120 h, Table 2, HIV-1 LAI, CEM-SS cells, 5 days, read-out: IC50, anti-HIV-1 activity
[4] = Table 2, HIV-1 LAI, CEM-SS cells
[5] = Human immunodeficiency virus 1, 1 μM inhibitor, 3 h, 100 TCID50, compared with viral supernatant subjected to same treatments, mean of 1 to 4 experiments, read-out: Activity of the isolated virions after treatment
[6] = Human immunodeficiency virus 1, 10 μM inhibitor, 3 h, 100 TCID50, compared with viral supernatant subjected to same treatments, mean of 1 to 4 experiments, read-out: Activity of the isolated virions after treatment

| IC50 (HIV-1 LAI; [3]) | Structure (SMILES) | CC50 at 120 h [1] | SI (selectivity index) (HIV-1 LAI; [4]) | other results |
| --- | --- | --- | --- | --- |
|  | Nc1ccn([C@@H]2CS[C@H](CO)O2)c(=O)n1 [Compound 3TC] |  |  | activity at 1 µM (isolated virion HIV-1LAI; [5]): 100%; activity at 10 µM (isolated virion HIV-1LAI; [6]): 100%; activity on the isolated virion (in words) (isolated virion HIV-1LAI): totally inactive |
| > 10 µM | Cc1cnc(O)c([N+](=O)[O-])c1Sc1ccccc1 [Compound 7d, 5-methyl-3-nitro-4-phenylthio-pyridin-2(1H)-one] | > 10 µM |  |  |
| 0.005 µM | CCOCc1c[nH]c(=O)c([N+](=O)[O-])c1Sc1cc(C)cc(C)c1 [Compound 7g, 5-ethoxymethyl-3-nitro-4-(3', 5'-dimethylphenyl)thio-pyridin-2(1H)-one] | > 10 µM | > 2000 |  |
| 0.02 µM | CCOCc1c[nH]c(=O)c(N)c1Sc1cc(C)cc(C)c1 [Compound 8g, 3-amino-5-ethoxymethyl-4-(3', 5'-dimethylphenyl)thio-pyridin-2(1H)-one] | > 10 µM | > 500 |  |
| 17.5 µM | Cc1cc(C)nc(Sc2c(C)c[nH]c(=O)c2[N+](=O)[O-])n1 [Compound 9a, 5-methyl-3-nitro-4-(4', 6'-dimethylpyrimidin-2-yl)thiopyridin-2(1H)-one] | 19.5 µM | > 1 |  |
| > 100 µM | Cc1cc(O)nc(Sc2c(C)cnc(O)c2[N+](=O)[O-])n1 [Compound 9b, 5-methyl-3-nitro-4-(4'-hydroxy-6'-methylpyrimidin-2-yl)thiopyridin-2(1H)-one] | > 100 µM |  |  |
| 43.5 µM | Cc1c[nH]c(=O)c([N+](=O)[O-])c1Sc1nc2ccccc2[nH]1 [Compound 9c, 5-methyl-3-nitro-4-(benzimidazol-2-yl)thiopyridin-2(1H)-one] | 54.5 µM | > 1 |  |
| 5.5 µM | Cc1c[nH]c(=O)c([N+](=O)[O-])c1Sc1nc2ccccc2o1 [Compound 9d, 5-methyl-3-nitro-4-(benzoxazol-2-yl)thiopyridin-2(1H)-one] | 16 µM | > 2 |  |
| 14.5 µM | Cc1cnc(O)c([N+](=O)[O-])c1Sc1nc2ccccc2s1 [Compound 9e, 5-methyl-3-nitro-4-(benzothiazol-2-yl)thio-pyridin-2(1H)-one] | 13.5 µM |  |  |
| 17 µM | Cc1c[nH]c(=O)c([N+](=O)[O-])c1SC1=NCCS1 [Compound 9f, 5-methyl-3-nitro-4-(thiazolin-2-yl) thio-pyridin-2(1H)-one] | 21.5 µM | > 1 |  |
| 56 µM | Cc1c[nH]c(=O)c([N+](=O)[O-])c1Sc1nccn1C [Compound 9g, 5-methyl-3-nitro-4-(N-methylimidazol-2-yl)thio-pyridin-2(1H)-one] | 68.5 µM | > 1 |  |
| 18 µM | Cc1c[nH]c(=O)c([N+](=O)[O-])c1Sc1ccccn1 [Compound 9h, 5-methyl-3-nitro-4-(2-pyridyl) thio-pyridin-2(1H)-one] | 28.5 µM | > 1 |  |
| 8 µM | Cc1cnc(O)c(N)c1Sc1nc2ccccc2o1 [Compound 10, 3-amino-5-methyl-4-(benzoxazol-2-yl)thio-pyridin-2(1H)-one] | 7.5 µM |  |  |
| 6.6 µM | Cc1cc(C)cc(Sc2c(C)c[nH]c(=O)c2NC=O)c1 [Compound 11a, 3-formamido-5-methyl-4-(3', 5'-dimethylphenyl)thio-pyridin-2(1H)-one] | > 100 µM | > 15 |  |
| > 10 µM | CCCCCCC(=O)Nc1c(Sc2cc(C)cc(C)c2)c(C)c[nH]c1=O [Compound 11d, 3-heptanamido-5-methyl-4-(3', 5'-dimethylphenyl)thio-pyridin-2(1H)-one] | > 10 µM |  |  |
| > 10 µM | Cc1cc(C)cc(Sc2c(C)cnc(O)c2NC(=O)Cc2ccccc2)c1 [Compound 11e, 5-methyl-3-phenylacetamido-4-(3', 5'-dimethylphenyl)thio-pyridin-2(1H)-one] | > 10 µM |  |  |
| 7.5 µM | CCOC(=O)Nc1c(Sc2cc(C)cc(C)c2)c(C)c[nH]c1=O [Compound 11f, 5-methyl-3-N-ethoxycarbamoyl-4-(3', 5'-dimethylphenyl)thio-pyridin-2(1H)-one] | > 100 µM | > 13 |  |
|  | Cc1ccnc2c1NC(=O)c1cccnc1N2C1CC1 [Nevirapine] |  |  | activity at 0.1 µM (isolated virion HIV-1LAI; Human immunodeficiency virus 1, 0.1 μM inhibitor, 3 h, 100 TCID50, compared with viral supernatant subjected to same treatments, mean of 1 to 4 experiments, read-out: Activity of the isolated virions after treatment): 86%; activity at 1 µM (isolated virion HIV-1LAI; [5]): 86%; activity at 10 µM (isolated virion HIV-1LAI; [6]): 111%; activity on the isolated virion (in words) (isolated virion HIV-1LAI): totally inactive |
|  | Cc1cn([C@H]2C=C[C@@H](CO)O2)c(=O)[nH]c1=O [d4T] |  |  | activity at 1 µM (isolated virion HIV-1LAI; [2]): 130%; activity at 10 µM (isolated virion HIV-1LAI; [2]): 127%; activity on the isolated virion (in words) (isolated virion HIV-1LAI): totally inactive |
|  | O=c1[nH]cnc2c1ncn2[C@H]1CC[C@@H](CO)O1 [ddl] |  |  | activity at 1 µM (isolated virion HIV-1LAI; [5]): 100%; activity at 10 µM (isolated virion HIV-1LAI; [6]): 100%; activity on the isolated virion (in words) (isolated virion HIV-1LAI): totally inactive |

| Structure (SMILES) | IC50 (HIV-1 LAI; [3]) | CC50 at 120 h [1] | SI (selectivity index) (HIV-1 LAI; [4]) | other results |
| --- | --- | --- | --- | --- |
| Cc1cn([C@H]2C[C@H](N=[N+]=[N-])[C@@H](CO)O2)c(=O)[nH]c1=O [AZT, reference compound] | 0.003 µM | > 100 µM | > 33333 | activity at 1 µM (isolated virion HIV-1LAI; [2]): 99%; activity at 10 µM (isolated virion HIV-1LAI; [2]): 99%; activity on the isolated virion (in words) (isolated virion HIV-1LAI): totally inactive; IC50 (HIV-1 LAI; Human immunodeficiency virus 1, CEM-SS, Table 4, HIV-1 (LA1)/CEMSS, read-out: IC50): 0.00084 µM |
